Measured values taken from US20150132746A1, “SAMPLING MEDIUM” (UNIVERSITY OF OSLO, priority 2012, published 2015).
Where a name gives a salt, the structure may show the parent alone. Read-outs that look alike come from different tables or passages of the source.

Legend:
[1] = Long term stability of model analytes in dried oral fluid stored 30 days on alginate or chitosan foam; type: physicochemical, human; settings: n = 3
From the text: The results are shown in Tables 3 and 4 for alginate and chitosan foam, respectively. No sample loss is observed after 30 days of storage. The stability of the model analytes by storing oral fluid on alginate and chitosan foam was considered satisfactory.

[2] = whole blood 70 ng/ml on alginate foam
[3] = cited from earlier work
[4] = oral fluid on alginate foam, theoretical 100 ng/ml, stored at 4 C
[5] = oral fluid on alginate foam, theoretical 100 ng/ml, stored at 37 C
[6] = oral fluid on alginate foam, theoretical 100 ng/ml, stored at room temperature
[7] = oral fluid on alginate foam, theoretical 100 ng/ml, stored at −18 C
[8] = oral fluid on alginate foam, theoretical 500 ng/ml, stored at 4 C
[9] = oral fluid on alginate foam, theoretical 500 ng/ml, stored at 37 C
[10] = oral fluid on alginate foam, theoretical 500 ng/ml, stored at room temperature
[11] = oral fluid on alginate foam, theoretical 500 ng/ml, stored at −18 C
[12] = oral fluid on chitosan foam, theoretical 100 ng/ml, stored at 4 C
[13] = oral fluid on chitosan foam, theoretical 100 ng/ml, stored at 37 C
[14] = oral fluid on chitosan foam, theoretical 100 ng/ml, stored at room temperature
[15] = oral fluid on chitosan foam, theoretical 100 ng/ml, stored at −18 C
[16] = oral fluid on chitosan foam, theoretical 500 ng/ml, stored at 4 C
[17] = oral fluid on chitosan foam, theoretical 500 ng/ml, stored at 37 C
[18] = oral fluid on chitosan foam, theoretical 500 ng/ml, stored at room temperature
[19] = oral fluid on chitosan foam, theoretical 500 ng/ml, stored at −18 C

SMILES	Measured concentration at day 30 [1, 4]	Measured concentration at day 30 [1, 5]	Measured concentration at day 30 [1, 6]	Measured concentration at day 30 [1, 7]	Measured concentration at day 30 [1, 8]	Measured concentration at day 30 [1, 9]	Measured concentration at day 30 [1, 10]	Measured concentration at day 30 [1, 11]	Measured concentration at day 30 [1, 12]	Measured concentration at day 30 [1, 13]	Measured concentration at day 30 [1, 14]	Measured concentration at day 30 [1, 15]	Measured concentration at day 30 [1, 16]	Measured concentration at day 30 [1, 17]	Measured concentration at day 30 [1, 18]	Measured concentration at day 30 [1, 19]	Nominal concentration at day 50 ([2]; stored at 4° C.)	Nominal concentration at day 50 ([2]; stored at 37° C.)	Nominal concentration at day 50 ([2]; stored at room temperature)	Nominal concentration at day 50 ([2]; stored at −18° C.)	further results
CO[C@@]12CC[C@@]3(C[C@@H]1[C@](C)(O)C(C)(C)C)[C@H]1Cc4ccc(O)c5c4[C@@]3(CCN1CC1CC1)[C@H]2O5.Cl [Buprenorphine, buprenorphine hydrochloride]	101 ng/mL	115 ng/mL	97 ng/mL	96 ng/mL	790 ng/mL	656 ng/mL	642 ng/mL	656 ng/mL	105 ng/mL	100 ng/mL	101 ng/mL	101 ng/mL	569 ng/mL	595 ng/mL	595 ng/mL	611 ng/mL	–	–	–	–	–
CN(C)CCCC1(c2ccc(F)cc2)OCc2cc(C#N)ccc21 (stereo not drawn) [Citalopram, citalopram hydrobromide]	–	–	–	–	–	–	–	–	–	–	–	–	–	–	–	–	64 ng/mL	59 ng/mL	64 ng/mL	72 ng/mL	–
CCC(=O)C(CC(C)N(C)C)(c1ccccc1)c1ccccc1 (stereo not drawn) [Methadone, Methadone hydrochloride]	113 ng/mL	117 ng/mL	103 ng/mL	106 ng/mL	636 ng/mL	–	582 ng/mL	602 ng/mL	115 ng/mL	108 ng/mL	113 ng/mL	105 ng/mL	564 ng/mL	545 ng/mL	582 ng/mL	599 ng/mL	63 ng/mL	54 ng/mL	61 ng/mL	79 ng/mL	–
CN[C@@H](C)Cc1ccccc1 [Methamphetamine]	107 ng/mL	42 ng/mL	72 ng/mL	103 ng/mL	645 ng/mL	319 ng/mL	466 ng/mL	687 ng/mL	126 ng/mL	80 ng/mL	98 ng/mL	117 ng/mL	744 ng/mL	467 ng/mL	601 ng/mL	732 ng/mL	–	–	–	–	–
COc1ccc(CC(C)N)cc1 (stereo not drawn) [PMA, para-methoxyamphetamine]	115 ng/mL	53 ng/mL	80 ng/mL	105 ng/mL	722 ng/mL	406 ng/mL	628 ng/mL	717 ng/mL	127 ng/mL	131 ng/mL	104 ng/mL	122 ng/mL	765 ng/mL	648 ng/mL	719 ng/mL	769 ng/mL	–	–	–	–	–
CNC(C)Cc1ccc(OC)cc1 (stereo not drawn) [PMMA, para-methoxymethamphetamine]	114 ng/mL	76 ng/mL	197 ng/mL	114 ng/mL	715 ng/mL	475 ng/mL	628 ng/mL	726 ng/mL	123 ng/mL	112 ng/mL	104 ng/mL	119 ng/mL	765 ng/mL	623 ng/mL	647 ng/mL	769 ng/mL	–	–	–	–	–
CN[C@H]1CC[C@@H](c2ccc(Cl)c(Cl)c2)c2ccccc21 [Sertraline, sertraline hydrochloride]	–	–	–	–	–	–	–	–	–	–	–	–	–	–	–	–	69 ng/mL	61 ng/mL	77 ng/mL	64 ng/mL	–
N[C@H]1C(O)O[C@H](CO)[C@@H](O)[C@@H]1O (stereo partly drawn) [glucosamine]	–	–	–	–	–	–	–	–	–	–	–	–	–	–	–	–	–	–	–	–	pKa [3]: 6.3
O=C[C@H](O)[C@H](O)[C@@H](O)[C@H](O)C(=O)O [guluronic, guluronic acid]	–	–	–	–	–	–	–	–	–	–	–	–	–	–	–	–	–	–	–	–	pKa [3]: 3.65
